# Experimental data as given in patent US20080318775A1, “Safening of pesticides with cyclopropenes” (priority 2007, published 2008).
# Like-named read-outs stand apart in the source and are kept apart here.
# Columns and labels:
# [1] = tested on: GLYPHOSATE-resistant soybeans; test: Plant height of soybeans sprayed with 0.5% GLYPHOSATE with or without 1-MCP
# [2] = tested on: GLYPHOSATE-resistant soybeans; test: Plant height of soybeans sprayed with 2% GLYPHOSATE with or without 1-MCP
# [3] = tested on: GLYPHOSATE-resistant soybeans; conditions: in vivo
# [4] = tested on: GLYPHOSATE-resistant soybeans; test: Plant height of soybeans sprayed with 0.05% PHYSAN 20 fungicide/antimicrobial agent with or without 1-MCP; assay type: in vivo; conditions: 10 ppm 1-MCP with 0.05% PHYSAN 20; plant height after 21 days
# [5] = tested on: GLYPHOSATE-resistant soybeans; conditions: in vivo; remark: listed apart in the source
smiles,measurement,setting,value
"O=C(O)CNCP(=O)(O)O [GLYPHOSATE, reference compound]",Plant Height,"[1]; greenhouse, sprayed to run off at second true leaves, 0.5% GLYPHOSATE, 10 ppm 1-MCP (as α-cyclodextrin complex), adjuvant 0.1% Quillaja Saponin, 21 days after spray, untreated control 126",112.1
same,Plant Height,"[2]; greenhouse, sprayed to run off at second true leaves, 2% GLYPHOSATE, 10 ppm 1-MCP (as α-cyclodextrin complex), adjuvant 0.1% Quillaja Saponin, 21 days after spray, untreated control 126",112.9
"CC1=CC1 [1-MCP, 1-methylcyclopropene]",Effect on the negative effect of the fertilizer on plant growth (in words),[3],able to alleviate some of that effect
same,Effect compared to the fungicide-treated plants (in words),[4],positive effect
same,Effect on setback caused by the insecticide (in words),[5],able to mediate some of the setback caused by the insecticide
same,Effect on growth reduction caused by the herbicide (in words),"[1]; 10 ppm 1-MCP with 0.5% GLYPHOSATE, plant height after 21 days",able to prevent the growth reduction caused by the herbicide
same,Effect on plant height / effect of the herbicide (in words),"[2]; 10 ppm 1-MCP with 2% GLYPHOSATE, with or without 0.1% Quillaja Saponin adjuvant, plant height after 21 days",improved the height
"CNC(=O)Oc1cccc2ccccc12 [CARBARYL, reference compound]",Plant Height,[5],112.8
